Data reported in the supplement of paper PMC10307832.

Assays:
Test in all cases: relative viability (nuclei count vs DMSO), 5 days (fraction); higher = more cells survive
[1] = compound: Cn1cncc1[C@@](N)(c1ccc(Cl)cc1)c1ccc2c(c1)c(-c1cccc(Cl)c1)cc(=O)n2C [Tipifarnib] + CC(C)C[C@H](NC(=O)[C@H](Cc1ccccc1)NC(=O)c1cnccn1)B(O)O [Bortezomib] (partner 0.002 µM)
Method in brief: (§1)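 Relative viability equals treated-well nuclei counts divided by vehicle-well nuclei counts. Counts came from 4× images of lung cancer cell lines grown in 1536-well plates for 5 days after pin-tool dosing on the day after seeding. Dosing used one drug alone or a fixed anchor-drug dose plus five library-drug doses (not always all listed) in √10 steps, and values are medians of duplicate plates.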

[2] = compound: Cn1cncc1[C@@](N)(c1ccc(Cl)cc1)c1ccc2c(c1)c(-c1cccc(Cl)c1)cc(=O)n2C [Tipifarnib] + Cc1nc(NC(=O)N2CCC[C@H]2C(N)=O)sc1-c1ccnc(C(C)(C)C(F)(F)F)c1 [Alpelisib] (partner 2 µM)
Method in brief: as §1

[3] = compound: Cn1cncc1[C@@](N)(c1ccc(Cl)cc1)c1ccc2c(c1)c(-c1cccc(Cl)c1)cc(=O)n2C [Tipifarnib] + Nc1nc2[nH]cc(CCc3ccc(C(=O)N[C@@H](CCC(=O)O)C(=O)O)cc3)c2c(=O)[nH]1 [Pemetrexed] (partner 0.2 µM)
Method in brief: as §1

[4] = compound: Cn1cncc1[C@@](N)(c1ccc(Cl)cc1)c1ccc2c(c1)c(-c1cccc(Cl)c1)cc(=O)n2C [Tipifarnib] + O=C(c1cc(Cc2n[nH]c(=O)c3ccccc23)ccc1F)N1CCN(C(=O)C2CC2)CC1 [Olaparib] (partner 8 µM)
Method in brief: as §1

| Cell Line | relative viability ([1]; first compound 0.01 µM) | relative viability ([1]; first compound 0.03162 µM) | relative viability ([1]; first compound 0.1 µM) | relative viability ([1]; first compound 0.3162 µM) | relative viability ([1]; first compound 1 µM) | relative viability ([2]; first compound 0.01 µM) | relative viability ([2]; first compound 0.03162 µM) | relative viability ([2]; first compound 0.1 µM) | relative viability ([2]; first compound 0.3162 µM) | relative viability ([2]; first compound 1 µM) | relative viability ([3]; first compound 0.01 µM) | relative viability ([3]; first compound 0.03162 µM) | relative viability ([3]; first compound 0.1 µM) | relative viability ([3]; first compound 0.3162 µM) | relative viability ([3]; first compound 1 µM) | relative viability ([4]; first compound 0.01 µM) | relative viability ([4]; first compound 0.03162 µM) | relative viability ([4]; first compound 0.1 µM) | relative viability ([4]; first compound 0.3162 µM) | relative viability ([4]; first compound 1 µM) |
| --- | --- | --- | --- | --- | --- | --- | --- | --- | --- | --- | --- | --- | --- | --- | --- | --- | --- | --- | --- | --- |
| NCI-H661 | 0.967 | 0.818 | 0.569 | 0.598 | 0.744 | 0.648 | 0.901 | 0.399 | 0.598 | 0.446 | 0.881 | 0.849 | 0.786 | 0.809 | 0.755 | 0.769 | 0.738 | 0.661 | 0.605 | 0.617 |
| NCI-H838 | 0.713 | 0.733 | 0.589 | 0.439 | 0.41 | 1.02 | 0.777 | 0.712 | 0.553 | 0.659 | 0.259 | 0.264 | 0.293 | 0.269 | 0.269 | 0.741 | 0.675 | 0.683 | 0.626 | 0.617 |
| NCI-H1355 | 1.17 | 0.992 | 0.806 | 0.722 | 0.813 | 0.874 | 0.804 | 0.678 | 0.518 | 0.599 | 1.04 | 0.966 | 0.81 | 0.776 | 0.745 | 0.801 | 0.706 | 0.55 | 0.559 | 0.507 |
| NCI-H1437 | 0.54 | 0.554 | 0.403 | 0.41 | 0.306 | 1.02 | 1.02 | 0.931 | 0.76 | 0.688 | 0.32 | 0.344 | 0.322 | 0.285 | 0.297 | 0.656 | 0.638 | 0.643 | 0.585 | 0.608 |
| NCI-H1651 | 0.94 | 0.916 | 1.04 | 0.842 | 0.78 | 1.32 | 1.01 | 1.03 | 0.837 | 0.811 | 0.592 | 0.636 | 0.676 | 0.635 | 0.522 | 0.213 | 0.194 | 0.236 | 0.22 | 0.222 |
| NCI-H1666 | 0.801 | 0.793 | 0.671 | 0.614 | 0.442 | 1 | 0.725 | 0.851 | 0.717 | 0.538 | 0.908 | 0.889 | 0.766 | 0.844 | 0.842 | 0.737 | 0.672 | 0.779 | 0.731 | 0.721 |
| NCI-H1734 | 0.953 | 0.764 | 0.724 | 0.502 | 0.385 | 0.714 | 0.598 | 0.592 | 0.501 | 0.418 | 0.38 | 0.442 | 0.428 | 0.419 | 0.394 | 0.626 | 0.615 | 0.54 | 0.494 | 0.482 |
| NCI-H1755 | 0.987 | 0.835 | 0.848 | 0.821 | 0.626 | 0.916 | 0.848 | 0.868 | 0.804 | 0.808 | 0.41 | 0.524 | 0.446 | 0.474 | 0.425 | 0.869 | 0.86 | 0.875 | 0.891 | 0.898 |
| NCI-H1792 | 0.967 | 0.877 | 0.661 | 0.621 | 0.432 | 0.699 | 0.643 | 0.345 | 0.293 | 0.281 | 0.681 | 0.332 | 0.416 | 0.157 | 0.118 | 0.301 | 0.279 | 0.208 | 0.169 | 0.122 |
| NCI-H1915 | 0.844 | 0.466 | 0.54 | 0.418 | 0.286 | 0.817 | 0.624 | 0.544 | 0.48 | 0.457 | 0.549 | 0.449 | 0.449 | 0.353 | 0.298 | 0.237 | 0.248 | 0.25 | 0.231 | 0.242 |
| NCI-H1975 | 0.49 | 0.283 | 0.311 | 0.214 | 0.2 | 0.713 | 0.599 | 0.468 | 0.329 | 0.351 | 0.258 | 0.285 | 0.3 | 0.241 | 0.251 | 0.863 | 0.764 | 0.782 | 0.559 | 0.505 |
| NCI-H1993 | 1.12 | 0.852 | 0.955 | 0.608 | 0.806 | 0.71 | 0.679 | 0.675 | 0.677 | 0.671 | 0.664 | 0.55 | 0.647 | 0.427 | 0.605 | 1.04 | 0.94 | 0.937 | 0.701 | 0.604 |
| NCI-H2009 | 1.11 | 0.775 | 0.678 | 0.642 | 0.373 | 1.18 | 1.06 | 0.899 | 0.689 | 0.679 | 0.979 | 0.999 | 0.7 | 0.658 | 0.694 | 0.729 | 0.714 | 0.585 | 0.558 | 0.469 |
| NCI-H2023 | 1.27 | 0.757 | 0.45 | 0.453 | 0.156 | 0.595 | 0.442 | 0.391 | 0.326 | 0.334 | 0.242 | 0.289 | 0.19 | 0.212 | 0.198 | 0.489 | 0.36 | 0.373 | 0.298 | 0.343 |
| NCI-H2085 | 1.15 | 0.729 | 0.695 | 0.601 | 0.72 | 0.924 | 0.709 | 0.605 | 0.599 | 0.533 | 0.874 | 0.677 | 0.693 | 0.525 | 0.539 | 0.823 | 0.758 | 0.613 | 0.513 | 0.7 |
| NCI-H2087 | 0.705 | 0.418 | 0.375 | 0.276 | 0.39 | 1.17 | 0.635 | 0.3 | 0.371 | 0.406 | 0.58 | 0.569 | 0.383 | 0.326 | 0.373 | 0.538 | 0.499 | 0.341 | 0.281 | 0.275 |
